According to ChEMBL document CHEMBL3639372, “Disubstituted azepan orexin receptor antagonists” (2014):

biological target: T1, Orexin/Hypocretin receptor type 1 (Rattus norvegicus, UniProt P56718); assay: Radioligand Binding Assay: Compound potency can be assessed by a radioligand binding assay (described in Bergman et. al. Bioorg. Med. Chem. Lett. 2008, 18, 1425-1430) in which the inhibition constant (Ki) is determined in membranes prepared from CHO cells expressing either the orexin-1 (OX1) or orexin-2 (OX2) receptor.; format: cell membranes
T1 sequence (P56718 whole entry): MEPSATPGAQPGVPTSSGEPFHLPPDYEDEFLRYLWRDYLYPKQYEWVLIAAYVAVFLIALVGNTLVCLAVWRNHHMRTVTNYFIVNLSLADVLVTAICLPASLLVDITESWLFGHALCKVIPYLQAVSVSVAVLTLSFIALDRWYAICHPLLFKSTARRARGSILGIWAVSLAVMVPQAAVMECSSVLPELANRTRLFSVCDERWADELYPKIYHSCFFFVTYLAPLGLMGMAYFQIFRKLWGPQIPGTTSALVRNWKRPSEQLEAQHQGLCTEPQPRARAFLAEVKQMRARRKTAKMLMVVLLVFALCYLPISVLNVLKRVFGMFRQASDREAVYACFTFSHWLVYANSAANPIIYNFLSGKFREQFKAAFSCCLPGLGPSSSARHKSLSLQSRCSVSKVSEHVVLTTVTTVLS

Row | Ki | Structure (SMILES)
1 | 15 nM | Cc1ccc(-n2nccn2)c(C(=O)N2CCCCC(COc3ccc(F)c(C)c3)C2)c1 (centres undefined)
2 | 73 nM | Cc1ccc(-c2nccs2)c(C(=O)N2CC(COc3ccc(F)cn3)CCCC2C)c1 (centres undefined)
3 | 39 nM | Cc1cc(OCC2COCC(C)N(C(=O)c3ccccc3-n3nccn3)C2)ccc1F (centres undefined)
4 | 150 nM | Cc1ccc(-n2nccn2)c(C(=O)N2CC(COc3ccc(F)cn3)CCCC2C)c1 (centres undefined)
5 | 310 nM | Cc1ccc(-c2ncccn2)c(C(=O)N2CC(COc3ccc(F)cn3)CCCC2C)c1 (centres undefined)
6 | 8.7 nM | Cc1ccc(-n2nccn2)c(C(=O)N2CC(COc3ccc(F)c(C)c3)CCCC2C)c1 (centres undefined)
7 | 5.1 nM | Cc1ccc(-n2nccn2)c(C(=O)N2CC(COc3ccc(F)c(C)c3)COCC2C)c1 (centres undefined)
8 | 42 nM | Cc1ccc(-c2ncccn2)c(C(=O)N2CC(COc3ccc(F)c(C)c3)CCCC2C)c1 (centres undefined)

Row | Structure (SMILES) | Ki
9 | Cc1cc(OCC2CCCC(C)N(C(=O)c3ccccc3-n3nccn3)C2)ccc1F (centres undefined) | 50 nM
